Test [1] has as its target T1, CdnP (Mycobacterium tuberculosis, UniProt P71615). Kind of test: Surface plasmon resonance (SPR) binding assay. The note with it: for kon: read-out: 1:1 binding ka. As for the experimental part:
Binding affinity between CdnP and test compounds was determined using a Biacore 1K instrument (Cytiva). Recombinant CdnP was immobilized on a Series S CM5 sensor chip according to manufacturer’s protocols. Association and dissociation kinetics were measured using a pre-established multi-cycle kinetics/affinity protocol with eight serially diluted compound concentrations in running buffer (10 mM HEPES, pH 7.4, 150 mM NaCl, 3 mM EDTA, 0.005% [vol/vol] Surfactant P20, and 5% [vol/vol] DMSO). Binding data were analyzed using the multi-cycle kinetics model to determine association rate (Ka), dissociation rate (Kd), and equilibrium dissociation constant (KD) values.

A further test concerns the target T2, CdnP (Rv2837c) (Mycobacterium tuberculosis, UniProt P71615).
T2 construct: pET32a vector-encoded fusion (Trx / His6 / S-tag; composition from own knowledge of the vector, His tag consistent with Ni-NTA purification) (N); made in house; host or cells: Escherichia coli BL21(DE3)
The experiment in a line: High-throughput enzymatic activity assay (coralyne/c-di-AMP fluorescence). In kind it is biochemical. As to conditions: for IC50: 100 nM CdnP, 15 µM c-di-AMP, 37°C, read-out: IC50 (half maximal inhibitory concentration); for inhibitory activity against CdnP: at concentrations as high as 1 mM (data not shown).

The target of test [2] is T1, CdnP. The note with it: cited from earlier work.
Setting [3] is: 1:1 binding, multi-cycle kinetics.

T2 sequence (P71615 whole entry, the tested form may be a part): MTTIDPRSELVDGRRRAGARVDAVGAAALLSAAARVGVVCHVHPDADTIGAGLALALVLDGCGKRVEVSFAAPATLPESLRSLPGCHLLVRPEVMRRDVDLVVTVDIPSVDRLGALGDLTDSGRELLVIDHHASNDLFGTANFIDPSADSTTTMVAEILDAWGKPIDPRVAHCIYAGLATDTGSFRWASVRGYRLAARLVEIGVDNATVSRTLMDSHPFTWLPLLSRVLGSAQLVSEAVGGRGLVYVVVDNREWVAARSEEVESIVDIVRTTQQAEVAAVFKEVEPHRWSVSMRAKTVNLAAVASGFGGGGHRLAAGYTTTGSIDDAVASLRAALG
T1 sequence (P71615 whole entry, looked up): as the sequence (P71615 whole entry, the tested form may be a part) above

Consider `Cc1cc(O)c2c3c1C(=O)C1c4c(c(O)cc5cc(O)cc(C)c45)[C@@]3(COC2=O)[C@H]1O` [Macrosporusone A], for which, on CdnP [1], the “Quality kinetics Chi^2” value was 2.46e+00 RU^2, the kd was found to be 1.62e-07 s⁻¹, the tc was 1.02e+08 and the kon is 254000 M⁻¹ s⁻¹. On CdnP (Rv2837c), the IC50 was 16.8 ± 0.44 µM.

Regarding `COc1ccc(-c2cc(=O)c3c(O)cc(O[C@@H]4O[C@H](CO)[C@@H](O)[C@H](O)[C@H]4O[C@@H]4O[C@@H](C)[C@H](O)[C@@H](O)[C@H]4O)cc3o2)cc1O` [Neodiosmin], on CdnP [1], the “Quality kinetics Chi^2” value was found to be 8.92e-02 RU^2, the Rmax stood at 26.8 RU, the kd stood at 0.00229 s⁻¹ and the tc is listed as 1.17e+08. In addition, on CdnP [1], binding was put at a Kd of 380 µM and the kon stood at 5.95 M⁻¹ s⁻¹. This compound gave an equilibrium dissociation constant (Kd) on CdnP [1] (setting [3]) of 384 µM. In addition, the IC50 on CdnP (Rv2837c) was found to be 5.5 ± 1.94 µM.

With `CN1CC(=O)N2[C@H](c3ccc4c(c3)OCO4)c3[nH]c4ccccc4c3C[C@@H]2C1=O` [tadalafil], the “inhibition of CdnP” value on CdnP [2] is “mild inhibition”. For the same compound, the “inhibitory activity against CdnP” value against CdnP (Rv2837c) is listed as “no detectable inhibitory activity”.

`C[C@@H]1O[C@@H](OC[C@H]2O[C@@H](Oc3cc(O)c4c(=O)cc(-c5ccc(O)cc5)oc4c3)[C@H](O[C@@H]3O[C@@H](C)[C@H](O)[C@@H](O)[C@H]3O)[C@@H](O)[C@@H]2O)[C@H](O)[C@H](O)[C@H]1O` [Ligustroflavone]: at CdnP [1], the “Quality kinetics Chi^2” value came to 4.90e-02 RU^2, the Rmax was determined as 1.0 RU, the kd stood at 6.42e-06 s⁻¹ and the tc turned out to be 1.16e+08. For the same compound, on CdnP [1], the kon turned out to be 339 M⁻¹ s⁻¹. Also, binding at CdnP [1] (setting [3]) was put at a Kd of 0.0189 µM. Also, the IC50 at CdnP (Rv2837c) came out at 39.5 ± 1.74 µM.

`C[C@@H]1O[C@@H](O[C@H]2[C@H](Oc3cc(O)c4c(=O)cc(-c5ccc(O)cc5)oc4c3)O[C@H](CO)[C@@H](O)[C@@H]2O)[C@H](O)[C@H](O)[C@H]1O` [Rhoifolin]: at CdnP [1], the “Quality kinetics Chi^2” value worked out at 2.02e-01 RU^2, the kd amounted to 0.209 s⁻¹, the tc came to 1.49e+08 and the Kd came out at 0.97 µM. Further, the kon on CdnP [1] turned out to be 215000 M⁻¹ s⁻¹. On CdnP [1] (setting [3]), the equilibrium dissociation constant (Kd) came to 0.972 µM. On CdnP (Rv2837c), the IC50 was found to be 20.3 ± 1.74 µM.

For the compound `COc1ccc([C@]2(C#N)CC[C@@H](C(=O)O)CC2)cc1OC1CCCC1` [Cilomilast, reference compound], at CdnP [1], the “Quality kinetics Chi^2” value came to 3.17e-01 RU^2, the Rmax is listed as 1733.5 RU, the kd is 0.465 s⁻¹ and the tc is listed as 6.30e+06. Moreover, the kon at CdnP [1] was determined as 10.5 M⁻¹ s⁻¹. Also, binding at CdnP [1] (setting [3]) was characterised by a dissociation constant (Kd) of 44200 µM. Also, the “inhibition of CdnP” value on CdnP [2] was “mild inhibition”. For the same compound, on CdnP (Rv2837c), the IC50 is above 1000 µM and the “inhibitory activity against CdnP” value is listed as “no detectable inhibitory activity”.

Take `CCCc1nn(C)c2c(=O)[nH]c(-c3cc(S(=O)(=O)N4CCN(C)CC4)ccc3OCC)nc12` [sildenafil]: at CdnP [2], the “inhibition of CdnP” value was “mild inhibition”. For the same compound, the “inhibitory activity against CdnP” value against CdnP (Rv2837c) was “no detectable inhibitory activity”.

Turning to `O=C1CCc2cc(OCCCCc3nnnn3C3CCCCC3)ccc2N1` [Cilostazol, reference compound], at CdnP [1], the “Quality kinetics Chi^2” value was 7.64e-02 RU^2, the kd was 0.321 s⁻¹, the tc amounted to 5.48e+09 and the kon was 76700 M⁻¹ s⁻¹. Also, the Kd on CdnP [1] (setting [3]) is 4.18 µM. Besides, the “inhibition of CdnP” value at CdnP [2] was “mild inhibition”. At CdnP (Rv2837c), the IC50 was above 1000 µM and the “inhibitory activity against CdnP” value is reported as “no detectable inhibitory activity”.

As for `CC(OCCCCOC(C)n1cnc2c(=O)[nH]cnc21)n1cnc2c(=O)[nH]cnc21` (stereo not shown) [NCI 79195], the IC50 on CdnP [2] was 9.66 µM.

The values are drawn from publication PMC12131788, “Discovery of natural CdnP inhibitors through structure-based virtual screening and molecular dynamics simulations” (Microbiology Spectrum, 2025).
